Tests used:
[1] = biological target: T1, M1 (Homo sapiens, UniProt P11229); assay: M1 PAM activity of oxidative metabolites; assay type: cell-based; conditions: in words
T1 construct: expressed in transfected cells
T1 sequence (P11229 1-460): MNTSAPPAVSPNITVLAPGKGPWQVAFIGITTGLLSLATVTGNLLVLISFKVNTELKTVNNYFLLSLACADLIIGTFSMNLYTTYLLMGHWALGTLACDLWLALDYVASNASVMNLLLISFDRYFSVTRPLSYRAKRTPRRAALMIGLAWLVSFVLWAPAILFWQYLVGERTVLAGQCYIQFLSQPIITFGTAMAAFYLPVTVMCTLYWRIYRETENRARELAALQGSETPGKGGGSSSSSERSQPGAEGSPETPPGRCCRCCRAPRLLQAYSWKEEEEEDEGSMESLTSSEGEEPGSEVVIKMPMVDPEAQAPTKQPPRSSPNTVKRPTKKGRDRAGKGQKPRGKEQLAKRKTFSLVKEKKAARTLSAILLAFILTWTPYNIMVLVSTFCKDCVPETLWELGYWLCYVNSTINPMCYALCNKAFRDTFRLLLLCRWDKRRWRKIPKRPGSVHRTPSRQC
Experimental: Procedures for Biological Experiments
Calcium mobilization assays:
All functional cell-based assays were performed in stable Chinese Hamster Ovary (CHO) cell lines constitutively expressing human M5 or human M1 receptors. For full muscarinic selectivity, CHO cells expressing human M3, human M2 plus Gqi5 or human M4 plus Gqi5 were used. Cells were plated at 15,000 cells per 20 µL per well in black 384-well, TC-treated, clear-bottomed plates (Greiner) in Ham’s F12 medium supplemented with 10% FBS and 20 mM HEPES. Cells were incubated overnight at 37 °C under 5% CO2. The following day, the medium was removed and replaced with 1.2 µM Fluo-4 AM (Invitrogen) in assay buffer (Hank’s Balanced Salt Solution supplemented with 20 mM HEPES and 2.5 mM Probenecid, pH 7.4) and the cells were incubated for 50 minutes at 37 °C under 5% CO2. Dye was then removed and replaced with 20 µL of fresh assay buffer. Test compounds at a 10 mM concentration in DMSO were serially diluted in DMSO (either 1:3 or 1:5 dilution) to create a 10-point concentration series. The DMSO solutions were then diluted in assay buffer resulting in compound solutions at 2-times the final assay concentration with the highest assay concentration of 30 µM. The compound plate, cell plate, and plates containing EC20 and EC80 acetylcholine concentrations were placed in a Hamamatsu FDSS 6000 or 7000 kinetic imaging plate reader equipped to measure Ex480/Em540 fluorescence. Data were collected at 1 frame per second. After 2 seconds of collecting baseline fluorescence, 20 µL of the compound solutions were added to the cell plate. This was followed by the addition of an EC20 concentration of acetylcholine at 142 seconds. […] The fluorescence signal was collected for a total of 300 seconds. […] Data were imported and analyzed in Dotmatics Informatics software. by normalizing all data in the individual kinetic traces to the initial fluorescence read. The magnitude of each agonist addition was then determined and normalized to the average maximum response. […] The IC50 determined using the EC80 of acetylcholine is the value reported. […]

[2] = Hepatocyte metabolite identification (rat); assay type: in vitro ADME; conditions: rat hepatocytes; 2 from 1, 4 from 3, 6 from 5
Experimental: (§1) Prior to full characterization of deuterated analogues 3 and 5, they were incubated in rat, dog, monkey, and human hepatocytes, along with 1, to determine the amount of parent remaining, as well as the degree of undesired oxidative metabolites 2, 4, and 6 (Figure 2). […] For the gem-dideutero congener 3, metabolic stability was improved in vitro. […] Thus, in hepatocytes in vitro, the kinetic isotope effect engendered greater metabolic stability of the labile hot spot on the lactam. It remained to be seen if this effect would translate in vivo, but we first had to assess the impact of the deuterated analogues on molecular pharmacology, in vitro DMPK, standard low-dose in vivo DMPK and, if warranted, in vivo efficacy in a rat novel object recognition (NOR) behavioral assay.

[3] = Hepatocyte metabolite identification (dog); assay type: in vitro ADME; conditions: dog hepatocytes; 2 from 1, 4 from 3, 6 from 5
Experimental: as §1

[4] = Hepatocyte metabolite identification (monkey); assay type: in vitro ADME; conditions: monkey hepatocytes; for % Total Peak Area, oxidative metabolite formed: 2 from 1, 4 from 3, 6 from 5
Experimental: as §1

[5] = Hepatocyte metabolite identification (human); assay type: in vitro ADME; conditions: human hepatocytes; for % Total Peak Area, oxidative metabolite formed: 2 from 1, 4 from 3, 6 from 5
Experimental: as §1

[6] = parameters: method as in doi:10.1002/alz.045339, doi:10.1016/j.jagp.2021.01.038; conditions: humans, phase I, upon increasing dose of 1; cited from earlier work
[7] = Dog MTD with pharmacokinetics study; assay type: in vivo; conditions: dog MTD; for ratio AUC (%) / ratio Cmax (%): 6 relative to 5; for AUC / Cmax: plasma
Excerpt: (§2) To this end, we prepared a 200 g lot of PAM 5 and performed, in parallel, a dog maximum tolerated dose (MTD) with a pharmacokinetics study and a 14-day rat exploratory toxicology and toxicokinetic study, quantifying plasma Cmax and AUC for both parent 5 and metabolite 6. […] Moreover, while exposure increased with dose, it was nonlinear. […] The series was terminated based on (1) poor and less than dose-proportional increases in systemic exposure, (2) lack of a kinetic isotope effect to diminish production of 6 in dogs and rats, and (3) strong likelihood of even higher concentrations of 6 to be present in man.

[8] = Rat 14-day exploratory toxicology and toxicokinetic study; assay type: in vivo; conditions: rat 14-day study; for ratio AUC (%) / ratio Cmax (%): 6 relative to 5
Excerpt: as §2

[9] = day 14, 300 mg/kg PO of 5, plasma
[10] = day 14, 750 mg/kg PO of 5, plasma
[11] = day 14, 1500 mg/kg PO of 5, plasma

Cn1cc2c(-c3cc(F)c(CN4C(=O)c5cccnc5C4O)c(F)c3)cccc2n1 (stereo not shown) [compound 2]
M1 PAM activity [1]: inactive | % Total Peak Area, oxidative metabolite formed [2]: 23.7% | % Total Peak Area, oxidative metabolite formed [3]: 28.3% | % Total Peak Area, oxidative metabolite formed [4]: 74.3% | % Total Peak Area, oxidative metabolite formed [5]: 34.9% | share of the total drug-related area under the curve (AUC) [6]: > 50%

[2H]C1(O)c2ncccc2C(=O)N1Cc1c(F)cc(-c2cccc3nn(C)cc23)cc1F (stereo not shown) [compound 4]
M1 PAM activity [1]: inactive | % Total Peak Area, oxidative metabolite formed [2]: 7.8% | % Total Peak Area, oxidative metabolite formed [3]: 5.5% | reduction in oxidative metabolite production versus 2 from 1 [4]: > 50% | % Total Peak Area, oxidative metabolite formed [4]: 30.3% | reduction in oxidative metabolite production versus 2 from 1 [5]: 50% | % Total Peak Area, oxidative metabolite formed [5]: 15.2%

[2H]C1(O)c2ncccc2C(=O)N1Cc1c(F)cc(-c2cccc3nn(C([2H])([2H])[2H])cc23)cc1F (stereo not shown) [compound 6]
M1 PAM activity [1]: inactive | % Total Peak Area, oxidative metabolite formed [2]: 8.1% | % Total Peak Area, oxidative metabolite formed [3]: 4.1% | % Total Peak Area, oxidative metabolite formed [4]: 21% | % Total Peak Area, oxidative metabolite formed ([4]; listed as VU6045587): 21.0% | % Total Peak Area, oxidative metabolite formed [5]: 4.9% | ratio AUC (%) ([7]; 30 mg/kg PO of 5): 18% | ratio Cmax (%) ([7]; 30 mg/kg PO of 5): 19% | AUC ([7]; 30 mg/kg PO of 5): 6240 ng·h/mL | Cmax ([7]; 30 mg/kg PO of 5): 455 ng/mL | ratio AUC (%) ([7]; 300 mg/kg PO of 5): 21% | ratio Cmax (%) ([7]; 300 mg/kg PO of 5): 23% | AUC ([7]; 300 mg/kg PO of 5): 14100 ng·h/mL | Cmax ([7]; 300 mg/kg PO of 5): 818 ng/mL | ratio AUC (%) ([7]; 1000 mg/kg PO of 5): 19% | ratio Cmax (%) ([7]; 1000 mg/kg PO of 5): 17% | AUC ([7]; 1000 mg/kg PO of 5): 19200 ng·h/mL | Cmax ([7]; 1000 mg/kg PO of 5): 972 ng/mL | ratio AUC (%) ([8]; day 14, 300 mg/kg PO of 5): 28% | ratio Cmax (%) ([8]; day 14, 300 mg/kg PO of 5): 30% | AUC at 14 days [8, 9]: 89500 ng·h/mL | Cmax at 14 days [8, 9]: 6740 ng/mL | ratio AUC (%) ([8]; day 14, 750 mg/kg PO of 5): 23% | ratio Cmax (%) ([8]; day 14, 750 mg/kg PO of 5): 23% | AUC at 14 days [8, 10]: 125000 ng·h/mL | Cmax at 14 days [8, 10]: 7340 ng/mL | ratio AUC (%) ([8]; day 14, 1500 mg/kg PO of 5): 28% | ratio Cmax (%) ([8]; day 14, 1500 mg/kg PO of 5): 32% | AUC at 14 day [8, 11]: 143000 ng·h/mL | Cmax at 14 days [8, 11]: 9890 ng/mL

From PMC12006963, “Application of Deuterium in an M1 Positive Allosteric Modulator Back-Up Program: The Discovery of VU6045422” (ACS Chemical Neuroscience, 2025)
